Patent US20250090550A1, “INJECTABLE COMPOSITION COMPRISING CYTOLYTIC COMPOUND IN GEL, GEL-FORMING SOLUTION OR GEL-FORMING SUSPENSION FOR REDUCTION OF FAT” (GLONOVA PHARMA CO., LTD., priority 2022, published 2025)
Structures can show the parent of a compound that is named as a salt.

Columns and labels:
[1] = test system: fat tissue; conditions: after injection of deoxycholic acid solution; cited from earlier work
[2] = Gel formation of mixtures added to 0.9% saline, placed at 37° C.; assay type: physicochemical
Procedure: In the following examples, DCA-Na solutions were mixed with other components to prepare an injectable composition. Unless otherwise stated, the requirements for the final concentration of DCA-Na in the obtained compositions were ≥70% of initial solutions (≥36.96 mg/mL for 5% solution, ≥7.39 mg/mL for 1% solution). The appearances after mixing DCA-Na with other components were observed after placing at 25, 37 and 42° C. for 20, 30, 45, 60 and 120 minutes. 200 μL of the mixtures were also added to 200 μL 0.9% saline respectively and their appearances were also observed after placing at 37° C. for 20, 30, 45, 60 and 120 minutes. Photos were taken and showing in the figures.

SMILES	permeation into fat tissue after injection [1]	suitable concentration of lidocaine HCl mixing with 1% DCA-Na solution ([2]; mixtures of 1% DCA-Na and LA + lidocaine HCl)	tolerable concentration of lidocaine HCl mixing with 5% DCA-Na solution ([2]; mixtures of 5% DCA-Na and LA in lidocaine HCl)
C[C@H](CCC(=O)O)[C@H]1CC[C@H]2[C@@H]3CC[C@@H]4C[C@H](O)CC[C@]4(C)[C@H]3C[C@H](O)[C@]12C [deoxycholic acid, Deoxycholic acid]	more than 1 centimeter	–	–
CCN(CC)CC(=O)Nc1c(C)cccc1C [lidocaine HCl]	–	around 3 mg/mL	up to 6 mg/mL
